A short description of assay [1]: Maximal Electroshock Seizure Test. The note with it: for ED50: Mus musculus, read-out: ED50 for inhibition of seizures, MES (Phase II). The format is in vivo, male Carworth Farms #1 mice or Sprague-Dawley rats. A general note: The maximal electroshock test induces tonic seizures with an electrical stimulus.
Assay [2] in a line: Subcutaneous Pentylenetetrazol (Metrazol) Seizure Threshold Test. It is filed as in vivo, male Carworth Farms #1 mice or Sprague-Dawley rats. The note with it: for Lowest effective dose, Metrazol (Phase I): Table X; for Protection against Metrazol-induced seizures (in words): running text.
Where [3] appears, read: Table X, IP, challenge time 30 min.
[4] abbreviates: Table X, IP, challenge time 4 hrs.
The mark [5] stands for this setting: Table X, SC, challenge time 30 min.
Setting [6] is: Table X, SC, challenge time 4 hrs.

Turning to `CCC1(CCC(C)C)C(=O)[N-]C(=O)NC1=O.CCC1(CCC(C)C)C(=O)[N-]C(=O)NC1=O.O.O.[Cu+2]` [Cu(II)(Amobarbital)2 (H2 O)2], the “Lowest effective dose, MES (Phase I)” value is 100 milligrams per kilogram of bod in assay [1] (setting [3]), “I” in assay [1] (setting [4]), 300 milligrams per kilogram of bod in assay [1] (setting [5]) and “I” in assay [1] (setting [6]). The “Lowest effective dose, Metrazol (Phase I)” value is on record as 100 milligrams per kilogram of bod in assay [2] (IP, challenge time 30 min); “I” in assay [2] (IP, challenge time 4 hrs); 100 milligrams per kilogram of bod in assay [2] (SC, challenge time 30 min); “I” in assay [2] (SC, challenge time 4 hrs).
Consider `CCC1(CCC(C)C)C(=O)[N-]C(=O)NC1=O.CCC1(CCC(C)C)C(=O)[N-]C(=O)NC1=O.[Cu+2].c1ccncc1.c1ccncc1` [Cu(II)(Amobarbital)2 (pyridine)2], for which the “Lowest effective dose, MES (Phase I)” value is listed as 300 milligrams per kilogram of bod in assay [1] (setting [3]), 300 milligrams per kilogram of bod in assay [1] (setting [4]), “I” in assay [1] (setting [5]) and 100 milligrams per kilogram of bod in assay [1] (setting [6]). The “Lowest effective dose, Metrazol (Phase I)” value is 100 milligrams per kilogram of bod in assay [2] (IP, challenge time 30 min); 30 milligrams per kilogram of bod in assay [2] (IP, challenge time 4 hrs); 600 milligrams per kilogram of bod in assay [2] (SC, challenge time 30 min); 600 milligrams per kilogram of bod in assay [2] (SC, challenge time 4 hrs).
With `CCCC(C)C1(CC)C(=O)N=C([S-])NC1=O.CCCC(C)C1(CC)C(=O)N=C([S-])NC1=O.O.O.[Cu+2]` (stereo not shown) [Cu(II)(S--thiopental)2 (H2 O)2], the “Lowest effective dose, MES (Phase I)” value in assay [1] (setting [3]), in assay [1] (setting [4]), in assay [1] (setting [5]) and in assay [1] (setting [6]) was “I” throughout. Besides, the “Lowest effective dose, Metrazol (Phase I)” value is “I” in assay [2] (IP, challenge time 30 min); “I” in assay [2] (IP, challenge time 4 hrs); “I” in assay [2] (SC, challenge time 30 min); “I” in assay [2] (SC, challenge time 4 hrs).
In the case of `CCC1(c2ccccc2)C(=O)[N-]C(=O)NC1=O.CCC1(c2ccccc2)C(=O)[N-]C(=O)NC1=O.CCC1(c2ccccc2)C(=O)[N-]C(=O)NC1=O.CCC1(c2ccccc2)C(=O)[N-]C(=O)NC1=O.O.O.O.O.O.O.O.O.O.O.O.[Cu+2].[Cu+2]` [Cu(II)(Phenobarbital)2 (H2 O)5.5], the “Lowest effective dose, MES (Phase I)” value in assay [1] (setting [3]), in assay [1] (setting [4]), in assay [1] (setting [5]) and in assay [1] (setting [6]) was 30 milligrams per kilogram of bod in each case. In addition, the “Lowest effective dose, Metrazol (Phase I)” value in assay [2] (IP, challenge time 30 min) was 5 milligrams per kilogram of bod; in assay [2] (IP, challenge time 4 hrs), 5 milligrams per kilogram of bod; in assay [2] (SC, challenge time 30 min), 30 milligrams per kilogram of bod; in assay [2] (SC, challenge time 4 hrs), 30 milligrams per kilogram of bod.
For the compound `CCC1(c2ccccc2)NC(=O)NC1=O.CO.[OH][Cu][Cl]` (stereo not shown) [Cu(II)5-ethyl-5-phenylhydantoin(HO)(Cl)(CH3 OH)], the “Lowest effective dose, MES (Phase I)” value in assay [1] (setting [3]) is given as 30 milligrams per kilogram of bod; in assay [1] (setting [4]) it was “I”. For the same compound, the “Lowest effective dose, Metrazol (Phase I)” value was 30 milligrams per kilogram of bod in assay [2] (IP, challenge time 30 min) and “I” in assay [2] (IP, challenge time 4 hrs).
On to Cu(II)5-ethyl-5-phenylhydantoin(CH3 OH), for which the “Lowest effective dose, MES (Phase I)” value in assay [1] (setting [3]) is 100 milligrams per kilogram of bod; in assay [1] (setting [4]), 100 milligrams per kilogram of bod; in assay [1] (setting [5]), 100 milligrams per kilogram of bod; in assay [1] (setting [6]), 30 milligrams per kilogram of bod. Also, the “Lowest effective dose, Metrazol (Phase I)” value was 100 milligrams per kilogram of bod in assay [2] (IP, challenge time 30 min); “I” in assay [2] (IP, challenge time 4 hrs); 100 milligrams per kilogram of bod in assay [2] (SC, challenge time 30 min); 300 milligrams per kilogram of bod in assay [2] (SC, challenge time 4 hrs).
As for `CCC1(c2ccccc2)C(=O)[N-]C(=O)NC1=O.CCC1(c2ccccc2)C(=O)[N-]C(=O)NC1=O.[Cu+2].c1c[nH]cn1.c1c[nH]cn1` [Cu(II)(Phenobarbital)2 (imidazole)2], the “Lowest effective dose, MES (Phase I)” value in assay [1] (setting [3]) is 100 milligrams per kilogram of bod; in assay [1] (setting [4]) it was 100 milligrams per kilogram of bod; in assay [1] (setting [5]), “I”; in assay [1] (setting [6]) it was 100 milligrams per kilogram of bod. The “Lowest effective dose, Metrazol (Phase I)” value in assay [2] (IP, challenge time 30 min) was 300 milligrams per kilogram of bod; in assay [2] (IP, challenge time 4 hrs) it was 30 milligrams per kilogram of bod; in assay [2] (SC, challenge time 30 min) it was 100 milligrams per kilogram of bod; in assay [2] (SC, challenge time 4 hrs) it was 100 milligrams per kilogram of bod.
In the case of “Cu(II)n (Phenobarbital)n (pyridine)2n (H2 O)3n”, the “Lowest effective dose, Metrazol (Phase I)” value in assay [2] (SC, challenge time 30 min) is given as 30 milligrams per kilogram of bod; in assay [2] (SC, challenge time 4 hrs), 30 milligrams per kilogram of bod.
Regarding `O=C([O-])c1cc(Cl)ccc1O.O=C([O-])c1cc(Cl)ccc1O.[Cu+2]` [Cu(II)(5-chlorosalicylate)2], the “Anticonvulsant activity, Maximal Electroshock (Phase I)” value in assay [1] (Table II, IP) was “I”.
As for “Cu(II)n (Phenobarbital)n (H2 O)2n (H2 O)3n”, the “Lowest effective dose, MES (Phase I)” value is 100 milligrams per kilogram of bod in assay [1] (setting [5]) and 30 milligrams per kilogram of bod in assay [1] (setting [6]). In addition, the “Lowest effective dose, Metrazol (Phase I)” value in assay [2] (SC, challenge time 30 min) is 30 milligrams per kilogram of bod; in assay [2] (SC, challenge time 4 hrs) it was 30 milligrams per kilogram of bod.
A word on the ED50: it is the midpoint of the dose-response relation. For the compound `NC(=O)N1c2ccccc2C=Cc2ccccc21` [Carbamazepine, reference compound], the median effective dose (ED50) in assay [1] (Table X, IP, at time of peak activity) is 9 mg/kg.
`CC(C)[C@H](N)C(=O)[O-].CC(C)[C@H](N)C(=O)[O-].O.[Cu+2]` [Cu(II)(L-valinate)2 H2 O]: the “Protection against Metrazol-induced seizures (in words)” value (“Protection” for short) in assay [2] was “effective against the Metrazol-induced seizure at all doses studied and at both time intervals, 30 minutes and 4 hours”.
With `[Cu+2].[O-]c1ccccc1C=NCCN=Cc1ccccc1[O-]` [Cu(II) bissalicylatoethyleneimine], the “Anticonvulsant activity, Maximal Electroshock (Phase I)” value is “I” in assay [1] (Table IV, IP) and “I” in assay [1] (Table IV, SC). In addition, in assay [2] (Table IV, SC), the “Anticonvulsant activity, Metrazol (Phase I)” value is on record as “I”.
Take `CCCC(C)C1(CC)C(=O)[N-]C(=S)NC1=O.CCCC(C)C1(CC)C(=O)[N-]C(=S)NC1=O.[Cu+2]` (stereo not shown) [Cu(II)(N--thiopental)2 (H2 O)2.5]: the “Lowest effective dose, MES (Phase I)” value in assay [1] (setting [3]), in assay [1] (setting [4]), in assay [1] (setting [5]) and in assay [1] (setting [6]) was “I” throughout. In addition, the “Lowest effective dose, Metrazol (Phase I)” value is reported as “I” in assay [2] (IP, challenge time 30 min); “I” in assay [2] (IP, challenge time 4 hrs); “I” in assay [2] (SC, challenge time 30 min); 30 milligrams per kilogram of bod in assay [2] (SC, challenge time 4 hrs).
Take `CC(=O)Oc1ccccc1C(=O)[O-].CC(=O)Oc1ccccc1C(=O)[O-].CS(C)=O.CS(C)=O.[Cu+2]` [Cu(II)(acetylsalicylate)2 (dimethylsulfoxide)2]: in assay [1] (Table I, SC), the “Anticonvulsant activity, Maximal Electroshock (Phase I)” value is on record as “I”.
Consider `C[C@@H](O)[C@H](N)C(=O)[O-].N[C@@H](CO)C(=O)[O-].[Cu+2]` [Cu(II)(L-threoninate)(L-serinate)], for which, in assay [2], the “Protection” value was “effective against the Metrazol-induced seizure at all doses studied and at both time intervals, 30 minutes and 4 hours”.
Take `C[C@@H](O)[C@H](N)C(=O)[O-].C[C@H](N)C(=O)[O-].[Cu+2]` [Cu(II)(L-threoninate)(L-alaninate)]: the “Protection” value in assay [2] is “effective against the Metrazol-induced seizure at all doses studied and at both time intervals, 30 minutes and 4 hours”.
The same measure, in the same setting: under `N[C@@H](Cc1ccccc1)C(=O)[O-].N[C@@H](Cc1ccccc1)C(=O)[O-].[Cu+2]` [Cu(II)(L-phenylalaninate)2] stands “effective against the Metrazol-inducedseizure at all three doses studied but only at the shorter time period”.
With `O=C1CN=C(c2ccccc2Cl)c2cc([N+](=O)[O-])ccc2N1` [Clonazepam, reference compound], the ED50 in assay [1] (ip) was determined as 19 mg/kg; in assay [2] (Mus musculus, ip, read-out: ED50 for inhibition of seizures, Metrazol (Phase II)), 0.2 mg/kg.
As to `CC(=O)Oc1ccccc1C(=O)[O-].CC(=O)Oc1ccccc1C(=O)[O-].[Cu+2].c1ccncc1.c1ccncc1` [Cu(II)(acetylsalicylate)2 (pyridine)2], in assay [1] (Table I, SC), the “Anticonvulsant activity, Maximal Electroshock (Phase I)” value is “I”.
As for `C[C@@H](O)[C@H](N)C(=O)[O-].C[C@@H](O)[C@H](N)C(=O)[O-].O.[Cu+2]` [Cu(II)(L-threoninate)2 H2 O], the “Protection” value in assay [2] is “effective against the Metrazol-induced seizure at all doses studied and at both time intervals, 30 minutes and 4 hours”.
The same measure, in the same setting: with `C[C@H](N)C(=O)[O-].C[C@H](N)C(=O)[O-].[Cu+2]` [Cu(II)(L-alaninate)2] the entry was “effective against the Metrazol-induced seizure at all doses studied and at both time intervals, 30 minutes and 4 hours”.
Still for that read-out and setting: under Cu(II)(L-cystinate)2 H2 O stands “effective against the Metrazol-inducedseizure at all three doses studied but only at the shorter time period”.

Values taken from patent publication US4758555A, “Method for treating convulsions and epilepsy with organic copper compounds” (priority 1986, dated 1988).
